Earlier results as cited in patent US20050175599A1, “Process for producing substance” (Kyowa Hakko Kogyo Co., Ltd., priority 2001, published 2005).

Experiments:
bovine embryo cells = conditions: ubiquinone added to media; Biol. Reprod., 61, 541 (1999); cited from earlier work
HeLa cells = conditions: ubiquinone added to media; Protoplasma, 184, 214 (1995); cited from earlier work
murine fibroblast cells = conditions: ubiquinone added to media; Protoplasma, 184, 214 (1995); cited from earlier work

Measured: effect on cell growth

COC1=C(OC)C(=O)C(C/C=C(\C)CC/C=C(\C)CC/C=C(\C)CC/C=C(\C)CC/C=C(\C)CC/C=C(\C)CC/C=C(\C)CC/C=C(\C)CC/C=C(\C)CCC=C(C)C)=C(C)C1=O [ubiquinone, 2,3-dimethoxy-5-methyl-6-polyprenyl-1,4-benzoquinone]
promotes the growth: all assays above
